Target: T1, P2Y12 receptor (Homo sapiens, UniProt Q9H244)
T1 construct: expressed in transfected cells; host or cells: CHO cells (membrane preparation)
Test: Functional inhibition of 2-Me-S-ADP induced P2Y12 signalling (35S-GTPγS binding, cell membranes)
Assay type: biochemical
Conditions: 35S-GTPγS assay, membranes, EC80 concentration of 2-methyl-thio-adenosine diphosphate, 30° C. for 45 min; read-out: GTPγS (IC50 μM)
Outline: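 Membranes (5 μg) from P2Y12-transfected CHO cells in pH 7.4 HEPES buffer with 10 μM GDP and saponin were stimulated with an EC80 of 2-methyl-thio-ADP plus compound and ^35S-GTPγS for 45 min at 30° C. Filter-retained ^35S-GTPγS was counted, normalised between agonist and no-agonist activity, and IC50 taken from a four-parameter fit.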

T1 sequence (Q9H244 whole entry): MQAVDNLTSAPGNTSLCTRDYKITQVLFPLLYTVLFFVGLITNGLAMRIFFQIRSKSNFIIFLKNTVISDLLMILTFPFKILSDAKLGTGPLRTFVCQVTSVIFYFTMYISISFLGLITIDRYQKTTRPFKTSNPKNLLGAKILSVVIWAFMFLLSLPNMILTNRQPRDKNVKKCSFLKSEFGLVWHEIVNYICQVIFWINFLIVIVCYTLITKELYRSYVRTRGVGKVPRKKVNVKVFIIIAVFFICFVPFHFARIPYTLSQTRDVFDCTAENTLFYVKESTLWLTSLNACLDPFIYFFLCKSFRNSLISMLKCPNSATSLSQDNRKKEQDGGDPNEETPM

SMILES	IC50 [µM]
CC1CCC(CS(=O)(=O)NC(=O)C2CCN(c3nc(CN4CCCC4=O)c(C(=O)OC(C)C)cc3C#N)CC2)CC1 (stereo not drawn) [Example 54, Isopropyl 5-cyano-6-[4-({[(4-methylcyclohexyl)methyl]sulfonyl}carbamoyl)piperidin-1-yl]-2-[(2-oxopyrrolidin-1-yl)methyl]nicotinate]	0.104
CCOC(=O)c1cc(C#N)c(N2CCC(C(=O)NS(=O)(=O)Cc3ccccc3)CC2)nc1CN=[N+]=[N-] [Example 11, Ethyl 2-(azidomethyl)-6-{4-[(benzylsulfonyl)carbamoyl]piperidin-1-yl}-5-cyanonicotinate]	0.025
CCOC(=O)COc1nc(N2CCC(C(=O)NS(=O)(=O)Cc3ccccc3)CC2)c(C#N)cc1C(=O)OCC [Example 8, Ethyl 6-{4-[(benzylsulfonyl)carbamoyl]piperidin-1-yl}-5-cyano-2-(2-ethoxy-2-oxoethoxy)nicotinate]	0.039
CCOC(=O)c1cc(C#N)c(N2CCC(C(=O)NS(=O)(=O)Cc3ccccc3)CC2)nc1CSCCO [Example 28, Ethyl 6-{4-[(benzylsulfonyl)carbamoyl]piperidin-1-yl}-5-cyano-2-{[(2-hydroxyethyl)thio]methyl}nicotinate]	0.037
CCOC(=O)c1cc(C#N)c(N2CCC(C(=O)NS(=O)(=O)Cc3ccccc3)CC2)nc1COC(C)=O [Example 5, Ethyl 2-(acetoxymethyl)-6-{4-[(benzylsulfonyl)carbamoyl]piperidin-1-yl}-5-cyanonicotinate]	0.044
CCOC(=O)c1cc(C#N)c(N2CC(C(=O)NS(=O)(=O)Cc3ccccc3)C2)nc1CN1C(=O)CCC1=O [Example 13, Ethyl 6-{3-[(benzylsulfonyl)carbamoyl]azetidin-1-yl}-5-cyano-2-[(2,5-dioxopyrrolidin-1-yl)methyl]nicotinate]	0.064
CC(C)OC(=O)c1cc(C#N)c(N2CCC(C(=O)NS(=O)(=O)Cc3ccc(Cl)cc3F)CC2)nc1CN1CCCC1=O [Example 52, Isopropyl 6-(4-{[(4-chloro-2-fluorobenzyl)sulfonyl]carbamoyl}piperidin-1-yl)-5-cyano-2-[(2-oxopyrrolidin-1-yl)methyl]nicotinate]	0.014
CC(C)OC(=O)c1cc(C#N)c(N2CCC(C(=O)NS(=O)(=O)Cc3ccc(Cl)cc3Cl)CC2)nc1CN1CCCC1=O [Example 53, Isopropyl 5-cyano-6-(4-{[(2,4-dichlorobenzyl)sulfonyl]carbamoyl}piperidin-1-yl)-2-[(2-oxopyrrolidin-1-yl)methyl]nicotinate]	0.032
CCOC(=O)c1cc(C#N)c(N2CCC(C(=O)NS(=O)(=O)N(C)c3ccccc3)CC2)nc1CN1CCCC1=O [Example 57, Ethyl 5-cyano-6-[4-({[methyl(phenyl)amino]sulfonyl}carbamoyl)piperidin-1-yl]-2-[(2-oxopyrrolidin-1-yl)methyl]nicotinate]	0.013
CCOC(=O)c1cc(C#N)c(N2CCC(C(=O)NS(=O)(=O)Cc3ccccc3)CC2)nc1CSCCNC(C)=O [Example 29, Ethyl 2-{[(2-acetamidoethyl)thio]methyl}-6-{4-[(benzylsulfonyl)carbamoyl]piperidin-1-yl}-5-cyanonicotinate]	0.033
CCOC(=O)c1cc(C#N)c(N2CCC(C(=O)NS(=O)(=O)Cc3ccccc3)CC2)nc1OCC(=O)NC [Example 25, Ethyl 6-{4-[(benzylsulfonyl)carbamoyl]piperidin-1-yl}-5-cyano-2-[2-(methylamino)-2-oxoethoxy]nicotinate]	0.075
CC(C)OC(=O)c1cc(C#N)c(N2CCC(C(=O)NS(=O)(=O)Cc3ccc(F)cc3Cl)CC2)nc1CN1CCCC1=O [Example 49, Isopropyl 6-(4-{[(2-chloro-4-fluorobenzyl)sulfonyl]carbamoyl}piperidin-1-yl)-5-cyano-2-[(2-oxopyrrolidin-1-yl)methyl]nicotinate]	0.066
CCOC(=O)c1cc(C#N)c(N2CCC(C(=O)NS(=O)(=O)CC3CCOCC3)CC2)nc1CN1CCCC1=O [Example 72, Ethyl 5-cyano-2-[(2-oxopyrrolidin-1-yl)methyl]-6-(4-{[(tetrahydro-2H-pyran-4-ylmethyl)sulfonyl]carbamoyl}piperidin-1-yl)nicotinate]	0.725
CCOC(=O)c1cc(C#N)c(N2CC(C(=O)NS(=O)(=O)Cc3ccccc3)C2)nc1CN(C)C [Example 6, Ethyl 6-{3-[(benzylsulfonyl)carbamoyl]azetidin-1-yl}-5-cyano-2-[(dimethylamino)methyl]nicotinate]	1.07
CC(C)OC(=O)c1cc(C#N)c(N2CCC(C(=O)NS(=O)(=O)Cc3ccccc3)CC2)nc1CN1CCCC1=O [Example 34, Isopropyl 6-{4-[(benzylsulfonyl)carbamoyl]piperidin-1-yl}-5-cyano-2-[(2-oxopyrrolidin-1-yl)methyl]nicotinate]	0.033
CCOC(=O)c1cc(C#N)c(N2CC(C(=O)NS(=O)(=O)Cc3ccccc3)C2)nc1CS(C)(=O)=O [Example 10, Ethyl 6-{3-[(benzylsulfonyl)carbamoyl]azetidin-1-yl}-5-cyano-2-[(methylsulfonyl)methyl]nicotinate]	0.243

Other lines, results leading:

IC50 [µM]	SMILES
0.021	CC(C)OC(=O)c1cc(C#N)c(N2CCC(C(=O)NS(=O)(=O)N(C)c3ccccc3)CC2)nc1CN1CCCC1=O [Example 78, Isopropyl 5-cyano-6-[4-({[methyl(phenyl)amino]sulfonyl}carbamoyl)piperidin-1-yl]-2-[(2-oxopyrrolidin-1-yl)methyl]nicotinate]
0.037	CCOC(=O)c1cc(C#N)c(N2CCC(C(=O)NS(=O)(=O)CC3CCC3)CC2)nc1CN1CCCC1=O [Example 74, Ethyl 5-cyano-6-(4-{[(cyclobutylmethyl)sulfonyl]carbamoyl}piperidin-1-yl)-2-[(2-oxopyrrolidin-1-yl)methyl]nicotinate]
0.934	CCOC(=O)c1cc(C#N)c(N2CCC(C(=O)NS(=O)(=O)Cc3ccc([Si](C)(C)C)cc3)CC2)nc1CN1CCCCC1=O [Example 102, Ethyl 5-cyano-2-[(2-oxopiperidin-1-yl)methyl]-6-[4-({[4-(trimethylsilyl)benzyl]sulfonyl}carbamoyl)piperidin-1-yl]nicotinate]
1.58	COC(=O)c1cc(Cl)c(N2CCC(C(=O)NS(=O)(=O)Cc3ccccc3)CC2)nc1CN1CCCCC1=O [Example 129, Methyl 6-{4-[(benzylsulfonyl)carbamoyl]piperidin-1-yl}-5-chloro-2-[(2-oxopiperidin-1-yl)methyl]nicotinate]
0.057	CCOC(=O)c1cc(Cl)c(N2CCC(C(=O)NS(=O)(=O)Cc3ccc(Cl)cc3)CC2)nc1SCCNC(C)=O [Example 104, Ethyl 2-[(2-acetamidoethyl)thio]-5-chloro-6-(4-{[(4-chlorobenzyl)sulfonyl]carbamoyl}piperidin-1-yl)nicotinate]
0.042	CCOC(=O)c1cc(C#N)c(N2CCC(C(=O)NS(=O)(=O)Cc3ccccc3)CC2)nc1CSCCC(=O)OC [Example 119, Ethyl 6-{4-[(benzylsulfonyl)carbamoyl]piperidin-1-yl}-5-cyano-2-{[(3-methoxy-3-oxopropyl)thio]methyl}nicotinate]
0.053	CCOC(=O)CSc1nc(N2CCC(C(=O)NS(=O)(=O)CC3CCCC3)CC2)c(C#N)cc1C(=O)OCC [Example 110, Ethyl 5-cyano-6-(4-{[(cyclopentylmethyl)sulfonyl]carbamoyl}piperidin-1-yl)-2-[(2-ethoxy-2-oxoethyl)thio]nicotinate]
0.017	CCOC(=O)c1cc(C#N)c(N2CCC(C(=O)NS(=O)(=O)Cc3ccccc3)CC2)nc1OCCCC(C)=O [Example 121, Ethyl 6-{4-[(benzylsulfonyl)carbamoyl]piperidin-1-yl}-5-cyano-2-[(4-oxopentyl)oxy]nicotinate]
0.497	CC(C)OC(=O)c1cc(C#N)c(N2CCC(C(=O)NS(=O)(=O)Cc3ccc([Si](C)(C)C)cc3)CC2)nc1CN1CCCC1=O [Example 99, Isopropyl 5-cyano-2-[(2-oxopyrrolidin-1-yl)methyl]-6-[4-({[4-(trimethylsilyl)benzyl]sulfonyl}carbamoyl)piperidin-1-yl]nicotinate]
0.062	CCOC(=O)CSc1nc(N2CCC(C(=O)NS(=O)(=O)Cc3ccc(Cl)cc3Cl)CC2)c(C#N)cc1C(=O)OCC [Example 109, Ethyl 5-cyano-6-(4-{[(2,4-dichlorobenzyl)sulfonyl]carbamoyl}piperidin-1-yl)-2-[(2-ethoxy-2-oxoethyl)thio]nicotinate]
0.016	CCOC(=O)c1cc(C#N)c(N2CCC(C(=O)NS(=O)(=O)Cc3ccccc3)CC2)nc1SCC(=O)OC(C)C [Example 111, Ethyl 6-{4-[(benzylsulfonyl)carbamoyl]piperidin-1-yl}-5-cyano-2-[(2-isopropoxy-2-oxoethyl)thio]nicotinate]
0.062	CCOC(=O)c1cc(Cl)c(N2CCC(C(=O)NS(=O)(=O)N(C)c3ccccc3)CC2)nc1CN1CCCC1=O [Example 93, Ethyl 5-chloro-6-[4-({[methyl(phenyl)amino]sulfonyl}carbamoyl)piperidin-1-yl]-2-[(2-oxopyrrolidin-1-yl)methyl]nicotinate]
1.05	CCOC(=O)c1cc(C#N)c(N2CCC(C(=O)NS(=O)(=O)Cc3ccccc3)CC2)nc1CSCc1nccn1C [Example 116, Ethyl 6-{4-[(benzylsulfonyl)carbamoyl]piperidin-1-yl}-5-cyano-2-({[(1-methyl-1H-imidazol-2-yl)methyl]thio}methyl)nicotinate]
0.019	CCOC(=O)c1cc(C#N)c(N2CCC(C(=O)NS(=O)(=O)Cc3ccccc3)CC2)nc1O[C@@H](C)C(=O)OCC [Example 120, Ethyl 6-{4-[(benzylsulfonyl)carbamoyl]piperidin-1-yl}-5-cyano-2-[(1S)-2-ethoxy-1-methyl-2-oxoethoxy]nicotinate]

Reference: patent US20080200448A1, “New Pyridine Analogues VIII 518” (ASTRAZENECA AB, priority 2007, published 2008)
